According to patent publication US9562035B2, “Benzamide derivative useful as FASN inhibitors for the treatment of cancer” (Janssen Pharmaceutica NV, priority 2013, dated 2017):

Tests used:
Assay type in all cases: cell-based
[1] = tested on: rgRSV224 virus; assay: Antiviral Activity Against RSV (GFP expression in HeLa cells); conditions: human respiratory syncytial virus, 72 h, read-out: EC50 (RSV Antiviral Activity)
Protocol: (§1) Black 96-well clear-bottom microtiter plates (Corning, Amsterdam, The Netherlands) were filled in duplicate using a customized robot system with serial 4-fold dilutions of test compound in a final volume of 50 μl culture medium [RPMI medium without phenol red, 10% FBS, 0.04% gentamycin (50 mg/mL) and 0.5% DMSO]. Then, 100 μl of a HeLa cell suspension (5×10^4 cells/mL) in culture medium was added to each well followed by the addition of 50 μl rgRSV224 (MOI=0.02) virus in culture medium using a multidrop dispenser (Thermo Scientific, Erembodegem, Belgium). rgRSV224 virus is an engineered virus that includes an additional GFP gene (HALLAK, L. K., et. al., “Glycosaminoglycan sulfation requirements for respiratory syncytial virus infection.” J. Virol., 2000, pp 10508-10513, Vol. […]). Medium, virus- and mock-infected controls were included in each test. Cells were incubated at 37° C. in a 5% CO2 atmosphere. Three days post-virus exposure, viral replication was quantified by measuring GFP expression in the cells by a MSM laser microscope (Tibotec, Beerse, Belgium). […] In parallel, test compounds were incubated for three days in a set of white 96-well microtitier plates (Corning) and the cytotoxicity of compounds in HeLa cells was determined by measuring the ATP content of the cells using the ATPlite kit (PerkinElmer, Zaventem, Belgium) according to the manufacturer's instructions. […]

[2] = Cytotoxicity in HeLa cells (ATPlite); conditions: human, in parallel to RSV assay, read-out: CC50 (Toxicity HeLa Cells)
Protocol: as §1

[3] = tested on: HBV; assay: Antiviral Activity Against HBV Replication (HBV DNA, HepG2.117 cell line); conditions: Hepatitis B virus, 72 h; HepG2.117 cells, 3 days, HBV DNA by realtime PCR
Protocol: (§2) The anti-HBV activity was measured using the HepG2.117 cell line, a stable, inducibly HBV producing cell line (SUN D., et al., “Stable HepG2- and Huh7-based human hepatoma cell lines for efficient regulated expression of infectious hepatitis B virus”, J. of Hepatology, 2006, pp 636-645, Vol. 45) which replicates HBV in the absence of doxycycline (Tet-off system). For the antiviral assay, HBV replication was induced, followed by a treatment with serially diluted compound in 96-well plates in duplicate. After 3 days of treatment, the antiviral activity was determined by quantification of intracellular or extracellular HBV DNA using realtime PCR and an HBV specific primer set and probe. Cytotoxicity of the test compounds was tested using HepG2 cells, incubated for 4 days in the presence of test compounds. The viability of the cells was assessed using a Resazurin assay. The CC50 was defined as the 50% concentration for cytotoxicity

[4] = Cytotoxicity in HepG2 cells (Resazurin assay); conditions: human, read-out: CC50 (Toxicity HepG2-4d)
Protocol: as §2

Question: Which results are given for `Cc1ccc(C(=O)N2CCC(c3ccc(-c4cnn(C)c4)cc3)CC2)cc1NC(=O)c1ccc(NC(C)C)nc1` [Compound #32, 6-(isopropylamino)-N-(2-methyl-5-(4-(4-(1-methyl-1H-pyrazol-4-yl)phenyl)piperidine-1-carbonyl)phenyl)nicotinamide]?
Answer: EC50 [1]: 0.0177 µM; CC50 at 3 days [2]: > 25 µM; EC50 [3]: > 5 µM; CC50 at 4 days [4]: > 25 µM
